From patent publication US9271946B2, “Use of a RAR antagonist or inverse agonist for the treatment of chemotherapy and/or radiation therapy side effects” (IO Therapeutics, Inc., priority 2006, dated 2016)

Experiments:
[1] = test system: CPM-induced leukopenic mice; assay: peripheral and systemic neutrophil recovery in CPM-induced leukopenic mice, spleen and bone marrow (Example 2); format: in vivo, mouse
Procedure: Leukopenia was induced in male BDF1 mice (C57Bl×DBA2, 7.5-12 weeks) by an intra-peritoneal (i.p.) injection of 200 mg/kg Cyclophosphamide (CPM, Sigma-Aldrich, Saint Louis, Mo.) in 0.2 ml saline. The effect of VTP 194310 on leukocyte recovery was evaluated by oral gavage of animals with 1 mg/kg of VTP 194310 as indicated in the results section. VTP 194310 (dissolved in DMSO) was diluted through peanut oil as the vehicle (dosed at 5 ml/kg). Control mice were given DMSO and vehicle alone. As a positive control, granulocytopoiesis was stimulated in CPM-treated mice by a single sub-cutaneous injection of 10 μg/kg pegylated recombinant methionyl human granulocyte colony-stimulating factor (PEG-r-metHuG-CSF) (Neulasta, Pegfilgrastim; Amgen, Thousand Oaks, Calif.) on day 2. Three separate experiments were performed.
Peripheral blood (60 μl) was collected under anaesthesia from the retroorbital sinus of the mice with heparinized capillary tubes and transferred to EDTA-coated microtainer tubes (Becton Dickinson, Franklin Lakes, N.J.). White cell, neutrophil, and lymphocyte counts were obtained for at least three mice per group by diluting the blood 1:4 with PBS containing 5% bovine serum albumin (Fraction V; Sigma, Saint Louis, Mo.), and by using an Advia 120 Hematology System (Bayer HealthCare Diagnostics Division, Tarrytown, N.Y.).
Immature (Gr-1^low/CD11b^+ve) and mature (Gr-1^+ve/CD11b^+ve) neutrophils were identified in single cells suspensions prepared from spleen and bone marrow (femur) aspirates by double immunostaining using PE- and FITC-conjugated monoclonal antibodies (Pharmingen, San Diego, Calif.). Cells were analysed on a FACS Calibur interfaced with CellQuest Pro software program (Becton Dickinson, San Jose, Calif.).
These mice were gavaged with VTP 194310 on days −1 to 2 in relation to CPM treatment.

RARα = molecular target: T1, RARα (Homo sapiens, UniProt P10276); assay: binding to RARα
T1 sequence (P10276 1-462): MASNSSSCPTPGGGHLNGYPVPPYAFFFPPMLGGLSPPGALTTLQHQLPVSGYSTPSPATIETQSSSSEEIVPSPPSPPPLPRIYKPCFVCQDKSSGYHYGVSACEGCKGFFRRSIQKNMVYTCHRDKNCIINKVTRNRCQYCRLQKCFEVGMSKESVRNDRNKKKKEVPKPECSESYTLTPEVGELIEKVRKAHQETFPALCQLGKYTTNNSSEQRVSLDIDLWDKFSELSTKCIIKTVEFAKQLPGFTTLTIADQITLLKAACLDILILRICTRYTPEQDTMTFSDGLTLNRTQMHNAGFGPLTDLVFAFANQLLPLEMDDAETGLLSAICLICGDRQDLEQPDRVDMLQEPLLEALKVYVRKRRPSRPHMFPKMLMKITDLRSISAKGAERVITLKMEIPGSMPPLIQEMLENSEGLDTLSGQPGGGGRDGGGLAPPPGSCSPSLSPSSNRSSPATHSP

RARβ = molecular target: T2, RARβ (Homo sapiens, UniProt P10826); assay: binding to RARβ
T2 sequence (P10826 1-455): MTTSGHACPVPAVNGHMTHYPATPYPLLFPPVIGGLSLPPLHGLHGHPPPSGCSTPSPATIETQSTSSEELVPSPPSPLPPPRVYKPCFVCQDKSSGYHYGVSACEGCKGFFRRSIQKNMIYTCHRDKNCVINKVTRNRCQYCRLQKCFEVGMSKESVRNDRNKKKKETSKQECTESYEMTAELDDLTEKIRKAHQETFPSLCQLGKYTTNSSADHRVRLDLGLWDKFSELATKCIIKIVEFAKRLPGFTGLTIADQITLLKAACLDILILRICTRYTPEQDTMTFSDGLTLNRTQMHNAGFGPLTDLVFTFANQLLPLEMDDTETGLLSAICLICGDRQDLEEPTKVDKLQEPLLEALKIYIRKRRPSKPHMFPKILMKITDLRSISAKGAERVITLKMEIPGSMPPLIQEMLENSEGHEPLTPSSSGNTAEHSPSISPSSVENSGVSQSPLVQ

S. aureus MSSA 476 = assay: activity against S. aureus, growth on agar and in liquid culture; format: cell-based
Procedure: (§1) The compound was analyzed at an appropriate concentration in several assays for activity against S. aureus EMRSA-16 252 and S. aureus MSSA 476.

S. aureus EMRSA-16 252 = assay: as above; format: cell-based
Procedure: as §1

RARγ = molecular target: T3, RARγ (Homo sapiens, UniProt P13631); assay: binding to RARγ
T3 sequence (P13631 1-454): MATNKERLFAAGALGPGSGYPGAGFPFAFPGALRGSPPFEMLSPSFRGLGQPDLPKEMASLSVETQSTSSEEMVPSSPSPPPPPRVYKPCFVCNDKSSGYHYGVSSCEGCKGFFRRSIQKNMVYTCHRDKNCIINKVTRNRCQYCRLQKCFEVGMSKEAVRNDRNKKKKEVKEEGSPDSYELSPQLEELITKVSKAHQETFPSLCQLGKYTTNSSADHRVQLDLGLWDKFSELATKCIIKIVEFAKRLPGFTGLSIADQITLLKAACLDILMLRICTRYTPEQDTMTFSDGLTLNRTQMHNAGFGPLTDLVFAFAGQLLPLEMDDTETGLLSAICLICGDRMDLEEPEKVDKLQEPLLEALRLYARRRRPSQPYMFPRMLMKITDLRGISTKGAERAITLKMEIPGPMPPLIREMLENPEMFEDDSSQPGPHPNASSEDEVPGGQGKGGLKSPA

[2] = 2 μM incorporated into the agar
[3] = 50 μl of 2 μM in agar-well-diffusion assay

In the case of `CCc1ccc(C2=CC(C)(C)Sc3ccc(C#Cc4ccc(C(=O)O)cc4)cc32)cc1` [VTP 194310, 4-[[4-(4-ethylphenyl)-2,2-dimethyl-(2H)-thiochromen-6-yl]-ethynyl]-benzoic acid], the “absolute number of immature granulocytes (Gr-1low/CD11b+ve) in the spleen” value ([1]; day 7) is reported as 0.93±0.02 ×10^7, the “absolute number of Gr-1+ve/CD11b+ve cells in the spleen” value ([1]; days 6 and 7) is reported as “significantly increased” and the “immature granulocytes (Gr-1low/CD11b+ve) in the spleen” value ([1]; days 6 and 7) is reported as “elevated”. The “neutrophil, and lymphocyte counts compared to control recovering mice” value ([1]; days 6 to 8, gavaged days −1 to 2) was “significantly elevated”, the “spleen weight compared to controls” value ([1]; days 7 and 8, gavaged days −1 to 2) was “increased” and the “Gr-1+ve/CD11b+ve cells in the bone marrow” value ([1]; gavaged days −1 to 2) was “increased prevalence”. The Ki (RARα) was 3 nM, the Ki (RARβ) was 2 nM and the “growth rate in liquid culture” value (S. aureus MSSA 476; 2 μM) was “neither strain demonstrated any alteration in growth rate”. For the same molecule, the “growth of bacteria on agar” value (S. aureus MSSA 476; [2]) was “not inhibited”, the “growth of bacteria on agar” value (S. aureus MSSA 476; [3]) was “not inhibited” and the “growth rate in liquid culture” value (S. aureus EMRSA-16 252; 2 μM) was “neither strain demonstrated any alteration in growth rate”. The “growth of bacteria on agar” value (S. aureus EMRSA-16 252; [2]) was “not inhibited”, the “growth of bacteria on agar” value (S. aureus EMRSA-16 252; [3]) was “not inhibited” and the Ki (RARγ) was 5 nM.
